Results published in patent US10745396B2, “Pesticidally active polycyclic derivatives with sulfur containing substituents” (Syngenta Participations AG, priority 2015, dated 2020).

Assays:
Type in all cases: in vivo
[1] = test system: Plutella xylostella (Diamond Back Moth); assay: Plutella xylostella, artificial diet, L2 larvae; details: 120 h, application rate of 200 ppm, 5 days after infestation, read-out: effect in at least one of the two categories (mortality or growth inhibition)
Protocol: Example B7: Plutella xylostella (Diamond Back Moth)
(§1) 24-well microtiter plates with artificial diet were treated with aqueous test solutions prepared from 10′000 ppm DMSO stock solutions by pipetting. After drying, the plates were infested with L2 larvae (10 to 15 per well). The samples were assessed for mortality and growth inhibition in comparison to untreated samples 5 days after infestation.

[2] = test system: Euschistus heros (Neotropical Brown Stink Bug); assay: Euschistus heros, soybean leaves on agar, N2 nymphs; details: 120 h, application rate of 200 ppm, 5 days after infestation, read-out: effect in at least one of the two categories (mortality or growth inhibition)
Protocol: Example B3: Euschistus heros (Neotropical Brown Stink Bug)
Soybean leaves on agar in 24-well microtiter plates were sprayed with aqueous test solutions prepared from 10′000 ppm DMSO stock solutions. After drying the leaves were infested with N2 nymphs. The samples were assessed for mortality and growth inhibition in comparison to untreated samples 5 days after infestation.

[3] = test system: Spodoptera littoralis (Egyptian Cotton Leaf Worm); assay: Spodoptera littoralis, cotton leaf discs, L1 larvae; details: foliar, 72 h, application rate of 200 ppm, 3 days after infestation
Protocol: Example B8: Spodoptera littoralis (Egyptian Cotton Leaf Worm)
Cotton leaf discs were placed onto agar in 24-well microtiter plates and sprayed with aqueous test solutions prepared from 10′000 ppm DMSO stock solutions. After drying the leaf discs were infested with five L1 larvae. The samples were assessed for mortality, anti-feeding effect, and growth inhibition in comparison to untreated samples 3 days after infestation. Control of Spodoptera littoralis by a test sample is given when at least one of the categories mortality, anti-feedant effect, and growth inhibition is higher than the untreated sample.

[4] = test system: Diabrotica balteata (Corn Root Worm); assay: Diabrotica balteata, maize sprouts on agar, L2 larvae; details: 96 h, application rate of 200 ppm, 4 days after infestation, read-out: effect in at least one of the two categories (mortality or growth inhibition)
Protocol: Example B2: Diabrotica balteata (Corn Root Worm)
as §1, with “Maize sprouts placed onto an agar layer in 24-well” for “24-well”, “plates” for “plates with artificial diet”, “spraying.” for “pipetting.”, “(6” for “(10”, “10” for “15”, “4” for “5”

[5] = test system: Spodoptera littoralis (Egyptian Cotton Leaf Worm); assay: Spodoptera littoralis, uptake by lettuce roots from agar, eggs; details: 144 h, test rate of 12.5 ppm, 6 days after infestation, read-out: effect in at least one of the three categories (mortality, anti-feeding, or growth inhibition)
Source text: Example B9: Spodoptera littoralis (Egyptian Cotton Leaf Worm)
Test compounds were applied by pipette from 10′000 ppm DMSO stock solutions into 24-well plates and mixed with agar. Lettuce seeds were placed onto the agar and the multi well plate was closed by another plate which contained also agar. After 7 days the compound was absorbed by the roots and the lettuce grew into the lid plate. The lettuce leaves were then cut off into the lid plate. Spodoptera eggs were pipetted through a plastic stencil onto a humid gel blotting paper and the lid plate was closed with it. The samples were assessed for mortality, anti-feedant effect and growth inhibition in comparison to untreated samples 6 days after infestation.

[6] = test system: Myzus persicae (Green Peach Aphid); assay: Myzus persicae feeding/contact activity, sunflower leaf discs; details: foliar, 144 h, application rate of 200 ppm, 6 days after infestation
Protocol: Example B5: Myzus persicae (Green Peach Aphid): Feeding/Contact Activity
Sunflower leaf discs were placed onto agar in a 24-well microtiter plate and sprayed with aqueous test solutions prepared from 10′000 ppm DMSO stock solutions. After drying, the leaf discs were infested with an aphid population of mixed ages. The samples were assessed for mortality 6 days after infestation.

CCn1c(C(F)(F)F)cc2nc(-c3nc(-c4ccc(C(F)(F)F)cc4)ccc3S(=O)(=O)CC)n(C)c2c1=O [Compound P2, 5-ethyl-2-[3-ethylsulfonyl-6-[4-(trifluoromethyl)phenyl]-2-pyridyl]-3-methyl-6-(trifluoromethyl)imidazo[4,5-c]pyridin-4-one]
≥ 80%: percent effect (mortality or growth inhibition) at 200 ppm [1] | percent effect (mortality or growth inhibition) at 200 ppm [2] | percent control (mortality, anti-feedant effect or growth inhibition) at 200 ppm [3] | percent effect (mortality or growth inhibition) at 200 ppm [4]

CCS(=O)(=O)c1ccc(-n2cc(Cl)cn2)nc1-c1nc2cc(C(F)(F)F)n(C)c(=O)c2n1C [Compound P7, 2-[6-(4-chloropyrazol-1-yl)-3-ethylsulfonyl-2-pyridyl]-3,5-dimethyl-6-(trifluoromethyl)imidazo[4,5-c]pyridin-4-one]
≥ 80%: percent control (mortality, anti-feedant effect or growth inhibition) at 200 ppm [3]

CCS(=O)(=O)c1ccc(-n2cc(C(F)(F)F)cn2)nc1-c1nc2cc(C(F)(F)F)n(C)c(=O)c2n1C [Compound P9]
≥ 80%: percent effect (mortality or growth inhibition) at 200 ppm [1] | percent effect (mortality or growth inhibition) at 200 ppm [2] | percent control (mortality, anti-feedant effect or growth inhibition) at 200 ppm [3] | percent effect (mortality or growth inhibition) at 200 ppm [4]

CCn1c(C(F)(F)F)cc2nc(-c3nc(-c4ccc(Cl)c(Cl)c4)ccc3S(=O)(=O)CC)n(C)c2c1=O [Compound P10]
≥ 80%: percent effect (mortality or growth inhibition) at 200 ppm [1] | percent control (mortality, anti-feedant effect or growth inhibition) at 200 ppm [3] | percent effect (mortality or growth inhibition) at 200 ppm [4]

CCn1c(C(F)(F)F)cc2nc(-c3nc(-c4cc(F)cc(F)c4)ccc3S(=O)(=O)CC)n(C)c2c1=O [Compound P12]
≥ 80%: percent effect (mortality, anti-feeding or growth inhibition) at 12.5 ppm [5] | percent effect (mortality or growth inhibition) at 200 ppm [1] | percent effect (mortality or growth inhibition) at 200 ppm [2] | percent control (mortality, anti-feedant effect or growth inhibition) at 200 ppm [3] | percent effect (mortality or growth inhibition) at 200 ppm [4] | mortality at 200 ppm [6]

CCn1c(C(F)(F)F)cc2nc(-c3nc(-c4ccc(C#N)cc4)ccc3S(=O)(=O)CC)n(C)c2c1=O [Compound P15]
≥ 80%: percent effect (mortality, anti-feeding or growth inhibition) at 12.5 ppm [5] | percent effect (mortality or growth inhibition) at 200 ppm [1] | percent effect (mortality or growth inhibition) at 200 ppm [2] | percent control (mortality, anti-feedant effect or growth inhibition) at 200 ppm [3] | percent effect (mortality or growth inhibition) at 200 ppm [4]

CCn1c(C(F)(F)F)cc2nc(-c3nc(-c4cccc(Cl)c4)ccc3S(=O)(=O)CC)n(C)c2c1=O [Compound P17]
≥ 80%: percent effect (mortality or growth inhibition) at 200 ppm [1] | percent effect (mortality or growth inhibition) at 200 ppm [2] | percent control (mortality, anti-feedant effect or growth inhibition) at 200 ppm [3] | percent effect (mortality or growth inhibition) at 200 ppm [4] | mortality at 200 ppm [6]

CCn1c(C(F)(F)F)cc2nc(-c3nc(-c4ccccc4)ccc3S(=O)(=O)CC)n(C)c2c1=O [Compound P18]
≥ 80%: percent effect (mortality, anti-feeding or growth inhibition) at 12.5 ppm [5] | percent effect (mortality or growth inhibition) at 200 ppm [1] | percent effect (mortality or growth inhibition) at 200 ppm [2] | percent control (mortality, anti-feedant effect or growth inhibition) at 200 ppm [3] | percent effect (mortality or growth inhibition) at 200 ppm [4] | mortality at 200 ppm [6]

CCn1c(C(F)(F)F)cc2nc(-c3nc(-c4cc(F)cc(Cl)c4)ccc3S(=O)(=O)CC)n(C)c2c1=O [Compound P19]
≥ 80%: percent effect (mortality or growth inhibition) at 200 ppm [1] | percent control (mortality, anti-feedant effect or growth inhibition) at 200 ppm [3] | percent effect (mortality or growth inhibition) at 200 ppm [4]

CCn1c(C(F)(F)F)cc2nc(-c3nc(-c4ccc(OC(F)(F)F)cc4)ccc3S(=O)(=O)CC)n(C)c2c1=O [Compound P22]
≥ 80%: percent effect (mortality, anti-feeding or growth inhibition) at 12.5 ppm [5] | percent effect (mortality or growth inhibition) at 200 ppm [1] | percent effect (mortality or growth inhibition) at 200 ppm [2] | percent control (mortality, anti-feedant effect or growth inhibition) at 200 ppm [3] | percent effect (mortality or growth inhibition) at 200 ppm [4]

CCn1c(C(F)(F)F)cc2nc(-c3nc(-c4ccc(OC)c(F)c4)ccc3S(=O)(=O)CC)n(C)c2c1=O [Compound P23]
≥ 80%: percent effect (mortality or growth inhibition) at 200 ppm [1] | percent effect (mortality or growth inhibition) at 200 ppm [2] | percent control (mortality, anti-feedant effect or growth inhibition) at 200 ppm [3] | percent effect (mortality or growth inhibition) at 200 ppm [4] | mortality at 200 ppm [6]

CCn1c(C(F)(F)F)cc2nc(-c3nc(-c4ccc(Cl)c(C)c4)ccc3S(=O)(=O)CC)n(C)c2c1=O [Compound P24]
≥ 80%: percent effect (mortality or growth inhibition) at 200 ppm [1] | percent control (mortality, anti-feedant effect or growth inhibition) at 200 ppm [3] | percent effect (mortality or growth inhibition) at 200 ppm [4]

C/C=C/c1ccc(S(=O)(=O)CC)c(-c2nc3cc(C(F)(F)F)n(CC)c(=O)c3n2C)n1 [Compound P25]
≥ 80%: percent control (mortality, anti-feedant effect or growth inhibition) at 200 ppm [3] | percent effect (mortality or growth inhibition) at 200 ppm [4] | mortality at 200 ppm [6]

CCn1c(C(F)(F)F)cc2nc(-c3nc(-c4ccc(F)cc4)ccc3S(=O)(=O)CC)n(C)c2c1=O [Compound P26]
≥ 80%: percent effect (mortality or growth inhibition) at 200 ppm [1] | percent control (mortality, anti-feedant effect or growth inhibition) at 200 ppm [3]

CCn1c(C(F)(F)F)cc2nc(-c3nc(-c4ccsc4)ccc3S(=O)(=O)CC)n(C)c2c1=O [Compound P27]
≥ 80%: percent control (mortality, anti-feedant effect or growth inhibition) at 200 ppm [3]

CCn1c(C(F)(F)F)cc2nc(-c3nc(-c4cccnc4)ccc3S(=O)(=O)CC)n(C)c2c1=O [Compound P30]
≥ 80%: percent effect (mortality or growth inhibition) at 200 ppm [1] | percent effect (mortality or growth inhibition) at 200 ppm [2] | percent control (mortality, anti-feedant effect or growth inhibition) at 200 ppm [3] | percent effect (mortality or growth inhibition) at 200 ppm [4] | mortality at 200 ppm [6]

CCn1c(C(F)(F)F)cc2nc(-c3nc(-c4cncs4)ccc3S(=O)(=O)CC)n(C)c2c1=O [Compound P31]
≥ 80%: percent effect (mortality or growth inhibition) at 200 ppm [1] | percent control (mortality, anti-feedant effect or growth inhibition) at 200 ppm [3] | percent effect (mortality or growth inhibition) at 200 ppm [4] | mortality at 200 ppm [6]

CCn1c(C(F)(F)F)cc2nc(-c3nc(-c4ccc(Cl)cc4Cl)ccc3S(=O)(=O)CC)n(C)c2c1=O [Compound P32]
≥ 80%: percent effect (mortality or growth inhibition) at 200 ppm [1] | percent control (mortality, anti-feedant effect or growth inhibition) at 200 ppm [3] | percent effect (mortality or growth inhibition) at 200 ppm [4]

CCn1c(C(F)(F)F)cc2nc(-c3nc(-c4ccc(C(F)(F)F)cc4F)ccc3S(=O)(=O)CC)n(C)c2c1=O [Compound P33]
≥ 80%: percent effect (mortality or growth inhibition) at 200 ppm [1] | percent control (mortality, anti-feedant effect or growth inhibition) at 200 ppm [3] | percent effect (mortality or growth inhibition) at 200 ppm [4]

CCn1c(C(F)(F)F)cc2nc(-c3nc(-c4ccc(F)c(F)c4)ccc3S(=O)(=O)CC)n(C)c2c1=O [Compound P34]
≥ 80%: percent effect (mortality or growth inhibition) at 200 ppm [1] | percent control (mortality, anti-feedant effect or growth inhibition) at 200 ppm [3] | percent effect (mortality or growth inhibition) at 200 ppm [4]

CCn1c(C(F)(F)F)cc2nc(-c3nc(-c4cc(F)c(F)c(F)c4)ccc3S(=O)(=O)CC)n(C)c2c1=O [Compound P35]
≥ 80%: percent effect (mortality or growth inhibition) at 200 ppm [1] | percent effect (mortality or growth inhibition) at 200 ppm [2] | percent control (mortality, anti-feedant effect or growth inhibition) at 200 ppm [3] | percent effect (mortality or growth inhibition) at 200 ppm [4]

CCn1c(C(F)(F)F)cc2nc(-c3nc(-c4cc(C(F)(F)F)cc(C(F)(F)F)c4)ccc3S(=O)(=O)CC)n(C)c2c1=O [Compound P36]
≥ 80%: percent effect (mortality or growth inhibition) at 200 ppm [1] | percent control (mortality, anti-feedant effect or growth inhibition) at 200 ppm [3] | percent effect (mortality or growth inhibition) at 200 ppm [4]

CCS(=O)(=O)c1ccc(-c2cc(F)cc(F)c2)nc1-c1nc2cc(C(F)(F)F)n(C3CC3)c(=O)c2n1C [Compound P41]
≥ 80%: percent effect (mortality, anti-feeding or growth inhibition) at 12.5 ppm [5] | percent effect (mortality or growth inhibition) at 200 ppm [1] | percent control (mortality, anti-feedant effect or growth inhibition) at 200 ppm [3] | percent effect (mortality or growth inhibition) at 200 ppm [4]
